Patent publication EP4799619A1, “COMPOUND TARGETING EGR-1 AND USE THEREOF FOR TREATMENT OF ATOPIC DERMATITIS” (AgeraMedi, Inc., priority 2023, dated 2025)

Target: EGR-1 (Homo sapiens, UniProt P18146)
Assay: EGR-1 DNA binding activity assay (EDBA)
Design: made in house
Conditions: EGR-1 DNA binding inhibitory activity; EGR-1 overexpressing cell lysate; absorbance at 450 nm; compound concentration not given
Method: In this experiment, the inhibitory effect of the compounds of the present invention on EGR-1 binding activity was evaluated using an EGR-1 DNA binding activity assay (EDBA).
Single-stranded sense and antisense oligonucleotides of the following EGR-1 binding sequence (EBS) were prepared by outsourcing to Bioneer Co., Ltd. (Daejeon, Korea). In this case, the 5'-end of the sense oligonucleotide was labeled with biotin. The sense and antisense oligonucleotides were heated at 95 °C for 5 minutes and then left overnight at room temperature to hybridize the sense and antisense oligonucleotides. Hereinafter, the hybridized sense and antisense oligonucleotides are referred to as biotin-EBS. • Sense sequence: biotin-5'-[…]-3' • Antisense sequence: 5'-[…]-3'
Avidin protein was coated on a 96-well plate (purchased from Thermo Fisher Scientific), and biotin-EBS was added to the plate at a concentration of 0.5 pmol/50 µL/well, followed by reaction at 37 °C for 1 hour to allow biotin-EBS oligonucleotide to be attached to the plate. After washing three times with phosphate buffer saline containing 0.05% Tween 20 (PBS/Tween 20) to remove unattached biotin-EBS oligonucleotides, 200 µL of PBS/Tween 20 solution containing 2% bovine serum albumin (BSA) was added to each well, followed by reaction at 37 °C for 1 hour to block the surface of the plate where no oligonucleotide was attached.
The solution containing the sample compound and the EGR-1 protein was added to the biotin-EBS oligonucleotide coated plate prepared in step (2).
The compound sample (1 µL) was reacted with the EGR-1 overexpressing cell lysate containing 10 mM Tris, pH 7.5, 50 mM KCl, 2% BSA and 8% glycerol at room temperature for 30 minutes, and then added to a reaction well coated with biotin-EBS and further reacted at room temperature for one hour. After washing three times with PBS/Tween 20 solution, an EGR-1 antibody was added to the PBS solution supplemented with 2% BSA and 5 mM NaCl in an amount of 50 µL per each well. The mixture was incubated at room temperature for one hour, washed three times with PBS/Tween 20 solution, and then treated with horseradish peroxidase-conjugated secondary antibody (Goat anti-rabbit IgG antibody, Cell Signaling Technology company, Danvers, Mass., USA) diluted by 1:1000 at room temperature for one hour. After washing five times with PBS/Tween 20 solution, a substrate tetramethylbenzidine solution was added to each well in an amount of 50 µL. After reacting for 5 minutes, the reaction was stopped by adding 100 µL of 2 N sulfuric acid solution. The DNA binding inhibitory activity of EGR-1 was measured by absorbance at 450 nm according to Equation 1 below. EGR-1 DNA binding inhibitory activity (%) = 100−{(As/Ap)×100} [formula]
As: absorbance of a sample prepared by reacting an EGR-1-overexpressing cell lysate with the compound.
Ap: absorbance of the sample treated only with EGR-1-overexpressing cell lysate.

Chain of EGR-1 (P18146 whole entry): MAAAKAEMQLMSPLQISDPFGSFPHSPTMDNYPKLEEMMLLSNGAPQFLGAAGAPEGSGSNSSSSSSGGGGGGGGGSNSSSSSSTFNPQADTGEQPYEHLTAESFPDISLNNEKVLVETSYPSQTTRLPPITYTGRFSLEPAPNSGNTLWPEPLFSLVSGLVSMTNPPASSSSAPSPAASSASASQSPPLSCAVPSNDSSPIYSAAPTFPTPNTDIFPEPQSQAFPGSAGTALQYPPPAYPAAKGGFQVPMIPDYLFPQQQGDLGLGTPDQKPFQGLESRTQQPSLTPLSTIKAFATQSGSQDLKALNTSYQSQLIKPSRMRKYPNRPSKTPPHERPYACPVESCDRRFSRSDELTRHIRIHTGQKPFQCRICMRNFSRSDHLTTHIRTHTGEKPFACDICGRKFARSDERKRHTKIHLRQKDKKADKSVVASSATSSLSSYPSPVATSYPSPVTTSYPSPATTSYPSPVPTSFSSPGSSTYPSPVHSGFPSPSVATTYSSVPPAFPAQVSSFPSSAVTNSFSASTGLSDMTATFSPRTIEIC

Structure (SMILES): Cc1cccc(NC(=S)NN)c1 [Compound 11, N-(m-tolyl)hydrazinethioamide]
- Inhibition Rate (%): 18.67%

Structure (SMILES): O=C1Nc2cccc(Br)c2/C1=N/NC(=S)Nc1cccc([N+](=O)[O-])c1 [Compound 35, (Z)-2-(4-bromo-2-oxoindolin-3-ylidene)-N-(3-nitrophenyl)hydrazinethioamide]
- Inhibition Rate (%): 55.33%

Structure (SMILES): O=C1Nc2cccc(Br)c2/C1=N/NC(=S)Nc1ccccc1 [Compound 43, (Z)-2-(4-bromo-2-oxoindolin-3-ylidene)-N-phenylhydrazinethioamide]
- Inhibition Rate (%): 23.00%

Structure (SMILES): Cc1ccc2c(c1)/C(=N/NC(=S)Nc1cccc([N+](=O)[O-])c1)C(=O)N2 [Compound 30, (Z)-2-(5-methyl-2-oxoindolin-3-ylidene)-N-(3-nitrophenyl)hydrazinethioamide]
- Inhibition Rate (%): 32.70%

Structure (SMILES): O=C1Nc2cccc(Cl)c2/C1=N/NC(=S)Nc1ccccc1 [Compound 59, (Z)-2-(4-chloro-2-oxoindolin-3-ylidene)-N-phenylhydrazinethioamide]
- Inhibition Rate (%): 40.17%

Structure (SMILES): O=C1Nc2ccc(Br)cc2/C1=N/NC(=S)Nc1cccc([N+](=O)[O-])c1 [Compound 48, (Z)-2-(5-bromo-2-oxoindolin-3-ylidene)-N-(3-nitrophenyl)hydrazinethioamide]
- Inhibition Rate (%): 52.00%

Structure (SMILES): Cc1ccc2c(c1)/C(=N/NC(=S)Nc1ccccc1)C(=O)N2 [Compound 72, (Z)-2-(5-methyl-2-oxoindolin-3-ylidene)-N-phenylhydrazinethioamide]
- Inhibition Rate (%): 19.57%

Structure (SMILES): NC(=S)N/N=C1\C(=O)Nc2c(Br)cccc21 [Compound 42, (Z)-2-(7-bromo-2-oxoindolin-3-ylidene)hydrazinethioamide]
- Inhibition Rate (%): 53.00%

Structure (SMILES): COc1ccc2c(c1)NC(=O)/C2=N\NC(=S)Nc1ccc(C(F)(F)F)cc1 [Compound 26, (Z)-2-(6-methoxy-2-oxoindolin-3-ylidene)-N-(4-(trifluoromethyl)phenyl)hydrazinethioamide]
- Inhibition Rate (%): 49.67%

Structure (SMILES): O=C1Nc2ccc(OC(F)(F)F)cc2/C1=N/NC(=S)Nc1ccc(Br)cc1 [Compound 79, (Z)-N-(4-bromophenyl)-2-(2-oxo-5-(trifluoromethoxy)indolin-3-ylidene)hydrazinethioamide]
- Inhibition Rate (%): 42.27%

Structure (SMILES): O=C1Nc2ccccc2/C1=N/NC(=S)Nc1ccc(F)cc1 [Compound 57, (Z)-N-(4-fluorophenyl)-2-(2-oxoindolin-3-ylidene)hydrazinethioamide]
- Inhibition Rate (%): 40.10%

Structure (SMILES): O=C1Nc2ccc(F)cc2/C1=N/NC(=S)Nc1cccc(C(F)(F)F)c1 [Compound 62, (Z)-2-(5-fluoro-2-oxoindolin-3-ylidene)-N-(3-(trifluoromethyl)phenyl)hydrazinethioamide]
- Inhibition Rate (%): 10.00%

Structure (SMILES): O=C1Nc2ccc(OC(F)(F)F)cc2/C1=N/NC(=S)Nc1ccccc1 [Compound 76, (Z)-2-(2-oxo-5-(trifluoromethoxy)indolin-3-ylidene)-N-phenylhydrazinethioamide]
- Inhibition Rate (%): 17.23%

Structure (SMILES): COc1ccc2c(c1)NC(=O)/C2=N\NC(=S)NCc1ccccc1 [Compound 69, (Z)-N-benzyl-2-(6-methoxy-2-oxoindolin-3-ylidene)hydrazin-1-carbothioamide]
- Inhibition Rate (%): 14.17%

Structure (SMILES): Cc1ccc2c(c1)/C(=N/NC(=S)NCc1ccccc1)C(=O)N2 [Compound 74, (Z)-N-benzyl-2-(5-methyl-2-oxoindolin-3-ylidene)hydrazinethioamide]
- Inhibition Rate (%): 40.60%

Structure (SMILES): O=C1Nc2cc(Br)ccc2/C1=N/NC(=S)Nc1ccc([N+](=O)[O-])cc1 [Compound 58, (Z)-2-(6-bromo-2-oxoindolin-3-ylidene)-N-(4-nitrophenyl)hydrazinethioamide]
- Inhibition Rate (%): 46.97%

Structure (SMILES): O=C1Nc2c(F)cccc2/C1=N/NC(=S)Nc1ccc(F)cc1 [Compound 18, (Z)-2-(7-fluoro-2-oxoindolin-3-ylidene)-N-(4-fluorophenyl)hydrazinethioamide]
- Inhibition Rate (%): 33.80%

Structure (SMILES): NNC(=S)Nc1cccc(C(F)(F)F)c1 [Compound 1, N-(3-(trifluoromethyl)phenyl)hydrazinethioamide]
- Inhibition Rate (%): 23.60%
